The values below come from patent US8865748B2, “Compounds and compositions for stabilizing hypoxia inducible factor-2 alpha as a method for treating cancer” (Akebia Therapeutics Inc., priority 2011, dated 2014).

One experiment has as its system VEGF mRNA. In words: VEGF mRNA expression in wild type murine embryonic fibroblasts (quantitative PCR). Format: cell-based. The settings on record: hypoxic conditions (1% O2); 1, 10 and 100 μM; vs. hypoxia control; FIG. 1A. Here is the method:
(§1) Total RNA was isolated from tissues and cells by using TRIzol™ Reagent (Invitrogen) and the RNeasy kit (Qiagen), respectively. 1 μg RNA was used for reverse transcription using SuperScript II First-Strand Synthersis System (Invitrogen). cDNA's were amplified in a SYR Green or TaqMan Universal Master Mix (Applied Biosystems). Quantitative PCR (qPCR) was performed on ABI Prism 7700 sequence detection system. PCR conditions are: 10 min at 95° C., 40 cycles of 15 seconds at 95° C. and 1 minute at 60° C. The relative amount of mRNA was calculated after normalization to β-actin.
(§2) Cells were cultured in DMEM (#11965-092, Invitrogen) supplemented with 10% fetal bovine serum (Invitrogen), 100 U/mL penicillin and […] streptomycin. For glucose deprivation, DMEM without glucose (#11966-025, Invitrogen) was used.
(§3) Mouse embryonic fibroblasts (MEFs) were isolated from E12.5 embryos and immortalized by stable transfection with SV40 large T antigen.

In another experiment the test system is tumor growth. In words: Tumor growth in LysMcre control mice and mice with myeloid-specific deletion of HIF-2α. Format: in vivo. To be noted: FIG. 15. An excerpt: HIF-2α^flox/flox mice (originally developed by Dr. Celeste Simon, University of Pennsylvania) and LysMcre recombinase mice (originally developed by Irmgard Foerster, University of Duesseldorf) (both purchased from The Jackson Laboratory, Bar Harbor, Me.) were crossed to generate mice homozygous for both LysMcre and the floxed HIF-2α allele. LysMcre recombinase mice, which express no floxed alleles, were used as controls. Deletion of HIF-2α in HIF-2α^flox/flox/LysMcre macrophages, but not the LysMcre control macrophages, was confirmed at the transcript level by real-time PCR.
The disclosed HIF-2α stabilizer is not targeted specifically to macrophages, and will stabilize HIF-2α in all tissues, not only the tumor-associated macrophages. In order to determine the role of macrophages in the anti-tumor response to the disclosed HIF-2α stabilizer, mice with a myeloid-specific deletion of HIF-2α (HIF-2α^flox/flox/LysMcre mice) were utilized.

For the next experiment, the system named is Pmel17 mRNA. In words: Evaluation of lung metastases (Pmel17 mRNA, nested PCR) in B16F10 tumor-bearing mice. Format: in vivo. To be noted: FIG. 5; stabilizer I.P., GM-CSF I.T.; vs. vehicle control. Here is the method: Lung metastases were evaluated by detection of mRNA for melanocyte-specific proteins within the lungs of tumor-bearing mice. B16F10 tumor-bearing mice were treated with GM-CSF and/or the disclosed HIF-2α stabilizer, as depicted in FIG. 3. At the time of sacrifice, lungs were excised and flash-frozen in liquid nitrogen. Frozen lungs were homogenized in liquid nitrogen and the pulverized material was dissolved in TRIzol™ reagent (Invitrogen). […] The melanocyte-specific Pmel17 was detected by nested PCR using a modification of the protocol described by Tsukamoto et al. For the initial reaction, 30 cycles of PCR were carried out (95° C. for 1 minute, 58° C. for 1 min, 72° C. for 1 min) in a 20 μL reaction volume containing 2 μL of cDNA. […] Data were analyzed according to the comparative threshold method and normalized against the GAPDH internal control transcript. Results are semi-quantitative and represent the fold difference in transcript levels in vehicle-treated control mice as compared with levels in mice treated with the disclosed HIF-2α stabilizer and/or GM-CSF.
Lung metastases were evaluated by detection of mRNA for melanocyte-specific proteins within the lungs of tumor-bearing mice. […] Data were analyzed according to the comparative threshold method and normalized against the β-actin internal control transcript. […]

Experiment [1] concerns phosphoglycerate kinase (PGK) mRNA. Put plainly: Phosphoglycerate kinase (PGK) mRNA expression in wild type murine embryonic fibroblasts (quantitative PCR). Format: cell-based. To be noted: hypoxic conditions (1% O2); 1, 10 and 100 μM; vs. hypoxia control; FIG. 2A. Here is the method:
as §1, §2, §3

[2] abbreviates: mice with HIF-2α-deficient macrophages.

Consider `O=C(O)CNC(=O)c1ncc(-c2cccc(F)c2)cc1O` [disclosed HIF-2α stabilizer, {[5-(3-Fluorophenyl)-3-hydroxypyridine-2-carbonyl]amino}acetic acid], for which the “VEGF mRNA (relative amount)” value in the experiment with VEGF mRNA is “dramatic reduction”. Also, the tumor growth result in the experiment with tumor growth (LysMcre control mice) was “inhibited tumor growth”. In the experiment on tumor growth (setting [2]), the “magnitude of the anti-tumor response relative to control mice” value is listed as “much less” and the tumor growth result was “reduced tumor growth”. In addition, in the experiment with Pmel17 mRNA, the “relative metastasis to the lung as measured by Pmel17 mRNA expression” value is recorded as “reduced metastasis”. Besides, the “PGK mRNA (relative amount)” value in experiment [1] is “dramatic reduction”.
